From patent publication US11492348B2, “Tri-substituted aryl and heteroaryl derivatives as modulators of PI3-kinase and autophagy pathways” (Neuropore Therapies, Inc., priority 2018, dated 2022)

Key:
[1] = tested on: (Ser-473) pAKT in B103 (Rat Neuroblastoma) cells; test: pAKT protocol: loss of (Ser-473) pAKT by AlphaScreen in insulin-stimulated B103 cells; format: cell-based; conditions: (Ser-473) pAKT/total AKT IC50, 2-hour pretreatment, 2.5 μg/mL insulin 20 minutes
Procedure: Inhibition of the PI3K-AKT-mTOR pathway was measured by quantifying the loss of (Ser-473) pAKT using AlphaScreen (Perkin Elmer). B103 (Rat Neuroblastoma) cells were seeded in serum containing medium (High Glucose DMEM (-Phenol Red)+10% FBS+2× Glutamax+1 mM Sodium Pyruvate+10 mM HEPES+1× Non-Essential Amino Acids+1× Pen/Strep) on a 96-well tissue culture treated plate and grown for 20 hours. Cells were then serum starved in serum free medium (High Glucose DMEM (-Phenol Red)+1× Glutamax+1 mM Sodium Pyruvate+1× Pen/Strep) for 6 hours prior to a 2-hour pretreatment with inhibitors of the pathway, including reference inhibitor LY294002. These inhibitors were prepared at a 200× final concentration as a 6-point, 1:3 serial dilution in DMSO series, with DMSO as the 7th point. The inhibitors were then diluted in experimental medium (High Glucose DMEM (-Phenol Red)+1× Glutamax+1 mM Sodium Pyruvate+1× Pen/Strep+25 mM HEPES+0.1% BSA) and combined with the cells at 1× final concentration in 0.5% DMSO. […] Cells were promptly lysed using Perkin Elmer proprietary lysis buffer and the (Ser-473) pAKT and total AKT contained in the lysate was measured by AlphaScreen. In AlphaScreen, donor beads were coated with streptavidin to capture one of the antibodies, which is biotinylated. Acceptor beads were coated with Protein A to immobilize the other antibody. In the presence of target protein, the two antibodies bring the donor and acceptor beads close together, generating signal. The amount of light emission is directly proportional to the amount of target protein present in the sample. For each inhibitor tested: the ratio of measured (Ser-473) pAKT/totalAKT was plotted in GraphPad Prism as a 7-point, non-linear regression, 4-parameter curve with bottom constrained to reference control bottom and unconstrained top anchored to DMSO.

PI3Kα = PI3Kα (Homo sapiens (Human), UniProt P42336); test: Inhibition of PI3Kα (ADP-Glo kinase activity assay, ATP to ADP conversion); format: biochemical; conditions: 25 μM PIP2:PS, 60 μM ATP, 30 min reaction, luminescence
PI3Kα, sequence (P42336 whole entry): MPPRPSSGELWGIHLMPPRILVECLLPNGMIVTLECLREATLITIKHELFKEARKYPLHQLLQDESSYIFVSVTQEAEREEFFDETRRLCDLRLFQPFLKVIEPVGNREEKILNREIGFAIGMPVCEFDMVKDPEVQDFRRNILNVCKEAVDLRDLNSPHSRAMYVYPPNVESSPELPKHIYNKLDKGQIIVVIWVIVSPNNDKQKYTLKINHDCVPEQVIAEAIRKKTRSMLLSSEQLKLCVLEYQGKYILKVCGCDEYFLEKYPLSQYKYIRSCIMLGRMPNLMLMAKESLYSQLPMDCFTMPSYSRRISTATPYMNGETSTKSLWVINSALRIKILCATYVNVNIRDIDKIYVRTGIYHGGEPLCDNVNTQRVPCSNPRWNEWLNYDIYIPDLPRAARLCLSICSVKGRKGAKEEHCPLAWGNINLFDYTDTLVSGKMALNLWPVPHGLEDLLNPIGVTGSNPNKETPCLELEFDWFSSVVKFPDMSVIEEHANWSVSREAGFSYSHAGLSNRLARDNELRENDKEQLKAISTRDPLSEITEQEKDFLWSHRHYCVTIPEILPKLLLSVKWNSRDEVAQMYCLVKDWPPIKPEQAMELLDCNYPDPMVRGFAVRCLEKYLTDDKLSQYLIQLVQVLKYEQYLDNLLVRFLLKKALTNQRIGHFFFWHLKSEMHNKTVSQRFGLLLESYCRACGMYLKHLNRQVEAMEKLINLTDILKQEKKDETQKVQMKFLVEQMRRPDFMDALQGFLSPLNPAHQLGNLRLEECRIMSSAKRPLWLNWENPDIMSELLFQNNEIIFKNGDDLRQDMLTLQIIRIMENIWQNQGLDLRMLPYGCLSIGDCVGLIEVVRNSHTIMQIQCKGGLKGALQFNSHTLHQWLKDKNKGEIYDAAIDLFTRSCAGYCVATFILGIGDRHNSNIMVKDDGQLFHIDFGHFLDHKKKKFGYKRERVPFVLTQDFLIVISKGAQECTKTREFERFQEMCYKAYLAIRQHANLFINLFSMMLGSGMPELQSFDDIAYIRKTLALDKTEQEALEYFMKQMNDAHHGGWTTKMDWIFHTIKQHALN
PI3Kα, sequence (P27986 whole entry partner): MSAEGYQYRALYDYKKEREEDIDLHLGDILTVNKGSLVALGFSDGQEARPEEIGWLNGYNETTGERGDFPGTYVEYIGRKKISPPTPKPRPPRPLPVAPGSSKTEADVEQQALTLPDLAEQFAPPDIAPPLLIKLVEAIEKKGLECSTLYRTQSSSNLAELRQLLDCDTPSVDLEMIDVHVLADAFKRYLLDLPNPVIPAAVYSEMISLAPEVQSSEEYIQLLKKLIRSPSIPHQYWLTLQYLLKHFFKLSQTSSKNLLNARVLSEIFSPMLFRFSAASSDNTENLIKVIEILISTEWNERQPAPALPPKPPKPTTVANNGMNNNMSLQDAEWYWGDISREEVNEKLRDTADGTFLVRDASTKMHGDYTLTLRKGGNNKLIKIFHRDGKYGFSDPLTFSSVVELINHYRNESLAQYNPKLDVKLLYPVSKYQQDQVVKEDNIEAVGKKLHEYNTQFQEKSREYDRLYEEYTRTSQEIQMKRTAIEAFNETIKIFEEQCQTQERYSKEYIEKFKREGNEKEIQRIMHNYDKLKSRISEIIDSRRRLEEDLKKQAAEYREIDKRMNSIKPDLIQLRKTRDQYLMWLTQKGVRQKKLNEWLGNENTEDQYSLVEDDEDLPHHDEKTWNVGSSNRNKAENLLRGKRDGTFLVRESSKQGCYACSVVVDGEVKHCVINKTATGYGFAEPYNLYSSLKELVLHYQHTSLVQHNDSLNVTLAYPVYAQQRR
Method in brief: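 Recombinant active PI3Kα (1.1 nM) in HEPES pH 7.5 buffer with 6 mM MgCl2 and 8 mM DTT was preincubated with compound for 0 or 3 h. The reaction ran for 30 min with 25 µM PIP2:PS and 60 µM ATP, and ADP formation was read by ADP-Glo luminescence. IC50 came from a 12-point, 1:3 series fitted with a 4-parameter model, bottom fixed to reference inhibitor controls and top floating.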

mTor kinase = mTor kinase (Homo sapiens (Human), UniProt P42345); test: mTor assay (33P-ATP filter-binding kinase assay); format: biochemical; conditions: 2 hours at room temperature
Procedure: The substrate was prepared in base reaction buffer (20 mM Hepes (pH 7.5), 10 mM MgCl2, 1 mM EGTA, 0.02% Brij35, 0.02 mg/ml BSA, 0.1 mM Na3VO4, 2 mM DTT, 1% DMSO), and required cofactors were added to the substrate solution. The mTor kinase was delivered into the substrate solution, and the solution was gently mixed. Testing compounds were dissolved in 100% DMSO to specific concentration. The serial dilution was conducted by Integra Viaflo Assist in DMSO. The compounds were delivered into the kinase reaction mixture by Acoustic technology (Echo550; nanoliter range), and the reaction mixture was incubated for 20 min at room temperature. Then, 33P-ATP (Specific activity 10 μCi/μl) was delivered into the reaction mixture to initiate the reaction. The reaction mixture was incubated for 2 hours at room temperature. Radioactivity was detected by a filter-binding method. Kinase activity data were expressed as the percent remaining kinase activity in test samples compared to vehicle (dimethyl sulfoxide) reactions. IC50 values and curve fits were obtained using Prism (GraphPad Software).

SMILES | IC50 [1] | PI3Ka IC50 (PI3Kα) | IC50 (mTor kinase) | IC50 (PI3Kα; read-out: PI3Ka IC50)
Nc1ncc(-c2cc(N3CCOCC3)cc(S(=O)(=O)c3ccc(F)cc3)c2)cn1 [Compound 8, 5-(3-((4-fluorophenyl)sulfonyl)-5-morpholinophenyl)pyrimidin-2-amine] | 7.62 µM | 1.3 µM | 0.83 µM | 
N#Cc1ccc(S(=O)(=O)c2cc(-c3cnc(N)nc3)cc(N3CCOCC3)c2)cc1 [Compound 10, 4-((3-(2-aminopyrimidin-5-yl)-5-morpholinophenyl)sulfonyl)benzonitrile] | 30.7 µM | 0.46 µM | 0.64 µM | 
Nc1ncc(-c2cc(N3CCOCC3)cc(S(=O)(=O)c3ccc(F)c(Cl)c3)c2)cn1 [Compound 11, 5-(3-((3-chloro-4-fluorophenyl)sulfonyl)-5-morpholinophenyl)pyrimidin-2-amine] | 100 µM | 1.40 µM | 22 µM | 
Cc1cnccc1-c1cc(N2CCOCC2)cc(S(=O)(=O)c2ccccc2)c1 [Compound 12, 4-(3-(3-methylpyridin-4-yl)-5-(phenylsulfonyl)phenyl)morpholine] | 100 µM | 9.0 µM | 100 µM | 
N#Cc1cccc(S(=O)(=O)c2cc(-c3cnc(N)nc3)cc(N3CCOCC3)c2)c1 [Compound 13, 3-((3-(2-aminopyrimidin-5-yl)-5-morpholinophenyl)sulfonyl)benzonitrile] | 28.6 µM | 0.91 µM | 10 µM | 
Nc1ncc(-c2cc(N3CCOCC3)cc(S(=O)(=O)c3ccc(OC(F)(F)F)cc3)c2)cn1 [Compound 15, 5-(3-morpholino-5-((4-(trifluoromethoxy)phenyl)sulfonyl)phenyl) pyrimidin-2-amine] | 100 µM | 3.5 µM | 22 µM | 
N#Cc1ccc(S(=O)(=O)c2cc(-c3cnc(N)nc3C(F)(F)F)cc(N3CCOCC3)c2)cc1 [Compound 17, 4-((3-(2-amino-4-(trifluoromethyl)pyrimidin-5-yl)-5-morpholinophenyl)sulfonyl)benzonitrile] | 100 µM | 1.9 µM | 100 µM | 
N#Cc1ccc(S(=O)(=O)c2cc(-c3cnc(N)cc3C(F)(F)F)cc(N3CCOCC3)c2)cc1 [Compound 18, 4-((3-(6-amino-4-(trifluoromethyl)pyridin-3-yl)-5-morpholinophenyl)sulfonyl)benzonitrile] | 100 µM | 3.9 µM | 100 µM | 
O=S(=O)(c1ccccc1)c1cc(-c2cnc(NCCO)nc2)cc(N2CCOCC2)c1 [Compound 19, 2-((5-(3-morpholino-5-(phenylsulfonyl)phenyl)pyrimidin-2-yl)amino)ethan-1-ol] | 37 µM | 2.9 µM | 16 µM | 
O=S(=O)(c1ccccc1)c1cc(-c2cnc(NC3CC3)nc2)cc(N2CCOCC2)c1 [Compound 20, N-cyclopropyl-5-(3-morpholino-5-(phenylsulfonyl)phenyl)pyrimidin-2-amine] | 100 µM | 2.7 µM | 10 µM | 
Cc1ccc(S(=O)(=O)c2cc(-c3cnc(N)nc3)cc(N3CCOCC3)c2)cc1 [Compound 21, 5-(3-morpholino-5-tosylphenyl)pyrimidin-2-amine] | 37 µM | 2.1 µM | 9.39 µM | 
CC(=O)Nc1ccc(S(=O)(=O)c2cc(-c3cnc(N)nc3)cc(N3CCOCC3)c2)cc1 [Compound 22, N-(4-((3-(2-aminopyrimidin-5-yl)-5-morpholinophenyl)sulfonyl)phenyl)acetamide] | 39 µM | 2.8 µM | 8.69 µM | 
Nc1ncc(-c2cc(N3CCOCC3)cc(S(=O)(=O)Cc3ccccc3)c2)cn1 [Compound 23, 5-(3-(benzylsulfonyl)-5-morpholinophenyl)pyrimidin-2-amine] | 8.5 µM | 0.10 µM | 3 µM | 
Nc1ncc(-c2cc(N3CCOCC3)cc(S(=O)(=O)Cc3ccc(F)cc3F)c2)cn1 [Compound 26, 5-(3-((2,4-difluorobenzyl)sulfonyl)-5-morpholinophenyl)pyrimidin-2-amine] | 6.2 µM | 0.27 µM | 5.3 µM | 
N#Cc1cccc(CS(=O)(=O)c2cc(-c3cnc(N)nc3)cc(N3CCOCC3)c2)c1 [Compound 27, 3-(((3-(2-aminopyrimidin-5-yl)-5-morpholinophenyl)sulfonyl)methyl) benzonitrile] | 14 µM | 0.38 µM | 11 µM | 
COc1ccc(CS(=O)(=O)c2cc(-c3cnc(N)nc3)cc(N3CCOCC3)c2)cc1 [Compound 28, 5-(3-((4-methoxybenzyl)sulfonyl)-5-morpholinophenyl)pyrimidin-2-amine] | 13 µM |  | 7.9 µM | 0.37 µM
Nc1ncc(-c2cc(N3CCOCC3)cc(S(=O)(=O)Cc3ccc(F)cc3)c2)cn1 [Compound 29, 5-(3-((4-fluorobenzyl)sulfonyl)-5-morpholinophenyl)pyrimidin-2-amine] | 10.9 µM | 0.37 µM | 10.9 µM | 
CC(=O)Nc1ncc(-c2cc(N3CCOCC3)cc(S(=O)(=O)c3ccccc3)c2)cn1 [Compound 30, N-(5-(3-morpholino-5-(phenylsulfonyl)phenyl)pyrimidin-2-yl)acetamide] | 18 µM | 3.1 µM | 10.9 µM | 
Nc1cc(C(F)(F)F)c(-c2cc(N3CCOCC3)cc(S(=O)(=O)Cc3ccccc3)c2)cn1 [Compound 32, 5-(3-(benzylsulfonyl)-5-morpholinophenyl)-4-(trifluoromethyl)pyridin-2-amine] | 6.3 µM | 0.45 µM | > 33 µM | 
O=S(=O)(Cc1ccccc1)c1cc(-c2cnc(NCCO)nc2)cc(N2CCOCC2)c1 [Compound 35, 2-((5-(3-(benzylsulfonyl)-5-morpholinophenyl)pyrimidin-2-yl)amino)ethan-1-ol] | 23.5 µM | 1.1 µM | 12.2 µM | 
Nc1ncc(-c2cc(N3CCOCC3)cc(S(=O)(=O)CC3CCOC3)c2)cn1 (stereo not drawn) [Compound 38, 5-(3-morpholino-5-(((tetrahydrofuran-3-yl)methyl)sulfonyl)phenyl)pyrimidin-2-amine] | 9.11 µM | 0.74 µM | 3.6 µM | 
Nc1ncc(-c2cc(N3CCOCC3)cc(S(=O)(=O)CC3CCOCC3)c2)cn1 [Compound 39, 5-(3-morpholino-5-(((tetrahydro-2H-pyran-4-yl)methyl)sulfonyl)phenyl)pyrimidin-2-amine] | 9.9 µM | 0.79 µM | 4.8 µM | 
O=S(=O)(Cc1ccc(F)cc1)c1cc(-c2cccc(O)c2)cc(N2CCOCC2)c1 [Compound 41, 3′-((4-fluorobenzyl)sulfonyl)-5′-morpholino-[1,1′-biphenyl]-3-ol] | 0.86 µM | 0.53 µM | 4.27 µM | 
Nc1ncc(-c2cc(N3CCOCC3)cc(S(=O)(=O)Cc3ccccc3F)c2)cn1 [Compound 50, 5-(3-((2-fluorobenzyl)sulfonyl)-5-morpholinophenyl)pyrimidin-2-amine] | > 50 µM | 0.28 µM | 2.98 µM | 
Nc1ncc(-c2cc(N3CCOCC3)cc(S(=O)(=O)C3CCOC3)c2)cn1 (stereo not drawn) [Compound 51, 5-(3-morpholino-5-((tetrahydrofuran-3-yl)sulfonyl)phenyl)pyrimidin-2-amine] | 2.12 µM | 0.12 µM | 0.46 µM | 
